Measured values as given in PMC5775428, “Towards an experimental classification system for membrane active peptides” (Scientific Reports, 2018).
Like-named read-outs stand apart in the source and are kept apart here.

How the values were obtained:
[1] = cited from earlier work
[2] = cited from earlier work; remark: listed apart in the source
[3] = cited from earlier work; remark: listed apart in the source
[4] = cited from earlier work; remark: listed apart in the source
[5] = cited from earlier work; remark: listed apart in the source
[6] = cited from earlier work; remark: listed apart in the source
[7] = cited from earlier work; remark: listed apart in the source
[8] = cited from earlier work; remark: listed apart in the source
[9] = cited from earlier work; remark: listed apart in the source
[10] = cited from earlier work; remark: listed apart in the source
[11] = tested on: Candida albicans; conditions: Candida albicans
Summary of the method: (§1)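 MICs determined per CLSI M7-A10 (bacteria) and M27-A3 (yeasts) protocols, peptides tested at 0.5 to 256 μM. MIC taken as the lowest concentration with no cells seen by optical microscopy; three biological repeats with 2 technical replicates each.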

[12] = tested on: Xanthomonas campestris
Summary of the method: (§2)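 Peptides were serially diluted from 256 down to 0.5 μM and incubated with the bacterial strains according to CLSI M7-A10. Wells were then inspected by optical microscopy, and MIC assigned where no cells appeared.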

[13] = tested on: Bacillus cereus; conditions: Bacillus cereus
Summary of the method: as §2

[14] = tested on: Escherichia coli; conditions: Escherichia coli
Summary of the method: as §2

[15] = tested on: Cryptococcus neoformans; conditions: Cryptococcus neoformans
Summary of the method: as §1

[16] = tested on: Staphylococcus aureus; conditions: Staphylococcus aureus
Summary of the method: as §2

[17] = tested on: Pseudomonas syringae pv. tabaci; conditions: Pseudomonas syringae pv. tabaci
Summary of the method: as §2

[18] = tested on: Bacillus subtilis; conditions: Bacillus subtilis
Summary of the method: as §2

[19] = tested on: Erwinia carotovora; conditions: Erwinia carotovora
Summary of the method: as §2

[20] = tested on: Pseudomonas aeruginosa; conditions: Pseudomonas aeruginosa
Summary of the method: as §2

Substance: Syphaxin
- Tm broad component, DMPC LUVs [1]: 25.4 °C
- H sharp component, 2:1 DMPC:DMPG LUVs [2]: 197 kcal/mol
- Tm sharp component, 2:1 DMPC:DMPG LUVs [3]: 22.8 °C
- Tm broad component, 2:1 DMPC:DMPG LUVs [4]: 25.4 °C
- H broad component, 2:1 DMPC:DMPG LUVs [5]: 3240 kcal/mol
- H broad component, DMPC LUVs [6]: 2260 kcal/mol
- Tm sharp component, DMPC LUVs [7]: 21.9 °C
- Hv sharp component, DMPC LUVs [8]: 383000
- Hv broad component, DMPC LUVs [9]: 120000
- Hv broad component, 2:1 DMPC:DMPG LUVs [10]: 101000

Substance: Penetratin
- Tm broad component, DMPC LUVs [1]: 23.5 °C
- H sharp component, 2:1 DMPC:DMPG LUVs [2]: 3360 kcal/mol
- Tm sharp component, 2:1 DMPC:DMPG LUVs [3]: 24.5 °C
- Tm broad component, 2:1 DMPC:DMPG LUVs [4]: 26.6 °C
- H broad component, 2:1 DMPC:DMPG LUVs [5]: 2560 kcal/mol
- H broad component, DMPC LUVs [6]: 2890 kcal/mol
- Tm sharp component, DMPC LUVs [7]: 24.2 °C
- Hv sharp component, DMPC LUVs [8]: 1.01e+06
- Hv broad component, DMPC LUVs [9]: 295000
- Hv broad component, 2:1 DMPC:DMPG LUVs [10]: 116000

Substance: ANRLLEAYKMLLKFLGNLR [Gr02]
- Minimum inhibitory concentration ([11]; CLSI M27-A3, 0.5 to 256 μM tested, triplicate 1, also published in ref 7): 4 µM
- Minimum inhibitory concentration, Average ([11]; average of triplicates): 4.0 µM
- Minimum inhibitory concentration ([11]; triplicate 2): 4 µM
- Minimum inhibitory concentration ([11]; triplicate 3): 4 µM
- Minimum inhibitory concentration ([12]; CLSI M7-A10, triplicate 1): 4 µM
- Minimum inhibitory concentration, Average ([12]; average of triplicates): 4.0 µM
- Minimum inhibitory concentration ([12]; triplicate 2): 4 µM
- Minimum inhibitory concentration ([12]; triplicate 3): 4 µM
- Minimum inhibitory concentration ([13]; CLSI M7-A10, triplicate 1): 4 µM
- Minimum inhibitory concentration, Average ([13]; average of triplicates): 4.0 µM
- Minimum inhibitory concentration ([13]; triplicate 2): 4 µM
- Minimum inhibitory concentration ([13]; triplicate 3): 4 µM
- Minimum inhibitory concentration ([14]; CLSI M7-A10, triplicate 1): 4 µM
- Minimum inhibitory concentration, Average ([14]; average of triplicates): 4.0 µM
- Minimum inhibitory concentration ([14]; triplicate 2): 4 µM
- Minimum inhibitory concentration ([14]; triplicate 3): 4 µM
- Minimum inhibitory concentration ([15]; CLSI M27-A3, triplicate 1): 2 µM
- Minimum inhibitory concentration, Average ([15]; average of triplicates): 2.7 µM
- Minimum inhibitory concentration ([15]; triplicate 2): 2 µM
- Minimum inhibitory concentration ([15]; triplicate 3): 4 µM
- Minimum inhibitory concentration ([16]; CLSI M7-A10, triplicate 1): 1 µM
- Minimum inhibitory concentration, Average ([16]; average of triplicates): 1.0 µM
- Minimum inhibitory concentration ([16]; triplicate 2): 1 µM
- Minimum inhibitory concentration ([16]; triplicate 3): 1 µM
- Minimum inhibitory concentration ([17]; CLSI M7-A10, triplicate 1): 2 µM
- Minimum inhibitory concentration, Average ([17]; average of triplicates): 2.0 µM
- Minimum inhibitory concentration ([17]; triplicate 2): 2 µM
- Minimum inhibitory concentration ([17]; triplicate 3): 2 µM
- Minimum inhibitory concentration ([18]; CLSI M7-A10, triplicate 1): 1 µM
- Minimum inhibitory concentration, Average ([18]; average of triplicates): 1.0 µM
- Minimum inhibitory concentration ([18]; triplicate 2): 1 µM
- Minimum inhibitory concentration ([18]; triplicate 3): 1 µM
- Minimum inhibitory concentration ([19]; CLSI M7-A10, triplicate 1): 1 µM
- Minimum inhibitory concentration, Average ([19]; average of triplicates): 1.0 µM
- Minimum inhibitory concentration ([19]; triplicate 2): 1 µM
- Minimum inhibitory concentration ([19]; triplicate 3): 1 µM
- Minimum inhibitory concentration ([20]; CLSI M7-A10, triplicate 1): 32 µM
- Minimum inhibitory concentration, Average ([20]; average of triplicates): 32.0 µM
- Minimum inhibitory concentration ([20]; triplicate 2): 32 µM
- Minimum inhibitory concentration ([20]; triplicate 3): 32 µM
